Reference: PubChem BioAssay (NCI)
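Grown in 96-well plates, cells were treated for 48 hours with each compound at five concentrations. Insufficient inhibition: endpoint recorded as highest concentration tested. TGI denotes the concentration required for complete inhibition of growth.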

Tests used:
Experiment in all cases: NCI-60 cell line screen, 48 h
[1] = system: RPMI-8226 leukemia
[2] = system: HT29 colon
[3] = system: DU-145 prostate
[4] = system: NCI-H522 lung
[5] = system: SF-268 CNS
[6] = system: 786-0 renal
[7] = system: EKVX NSCLC
[8] = system: HS 578T breast
[9] = system: OVCAR-4 ovarian
[10] = system: SNB-75 CNS
[11] = system: SW-620 colon
[12] = system: NCI/ADR-RES ovarian
[13] = system: T-47D breast
[14] = system: M14 melanoma
[15] = system: NCI-H460 lung
[16] = system: KM12 colon
[17] = system: SN12C renal
[18] = system: A549 NSCLC
[19] = system: U251 CNS
[20] = system: MALME-3M melanoma
[21] = system: MCF7 breast
[22] = system: SNB-19 CNS
[23] = system: ACHN renal
[24] = system: HCT-116 colon
[25] = system: OVCAR-8 ovarian
[26] = system: HCT-15 colon
[27] = system: MDA-MB-435
[28] = system: MOLT-4 leukemia
[29] = system: TK-10 renal
[30] = system: SF-539 CNS
[31] = system: RXF 393 renal
[32] = system: OVCAR-3 ovarian
[33] = system: MDA-MB-231 breast
[34] = system: PC-3 prostate
[35] = system: SK-MEL-28 melanoma
[36] = system: HOP-62 NSCLC
[37] = system: HCC-2998 colon
[38] = system: SK-MEL-5 melanoma
[39] = system: BT-549 breast
[40] = system: SK-OV-3 ovarian
[41] = system: K-562 leukemia
[42] = system: SF-295 CNS
[43] = system: MDA-N
[44] = system: HOP-92 NSCLC
[45] = system: NCI-H226 lung
[46] = system: HL-60(TB) leukemia
[47] = system: CCRF-CEM leukemia
[48] = system: NCI-H23 lung
[49] = system: SR leukemia
[50] = system: OVCAR-5 ovarian
[51] = system: COLO 205 colon
[52] = system: IGROV1 ovarian
[53] = system: UACC-62 melanoma
[54] = system: CAKI-1 renal
[55] = system: UACC-257 melanoma
[56] = system: UO-31 renal
[57] = system: A498 renal
[58] = system: SK-MEL-2 melanoma
[59] = system: LOX IMVI melanoma

Cc1ccc2nc(-c3ccccc3)cc(=O)n2c1
TGI [1]: > 100 µM
TGI [2]: > 100 µM
TGI [3]: > 100 µM
TGI [4]: > 100 µM
TGI [5]: > 100 µM
TGI [6]: > 100 µM
TGI [7]: > 100 µM
TGI [8]: > 100 µM
TGI [9]: > 100 µM
TGI [10]: > 100 µM
TGI [11]: > 100 µM
TGI [12]: > 100 µM
TGI [13]: > 100 µM
TGI [14]: > 100 µM
TGI [15]: > 100 µM
TGI [16]: > 100 µM
TGI [17]: > 100 µM
TGI [18]: > 100 µM
TGI [19]: > 100 µM
TGI [20]: > 100 µM
TGI [21]: > 100 µM
TGI [22]: > 100 µM
TGI [23]: > 100 µM
TGI [24]: > 100 µM
TGI [25]: > 100 µM
TGI [26]: > 100 µM
TGI [27]: > 100 µM
TGI [28]: > 100 µM
TGI [29]: > 100 µM
TGI [30]: > 100 µM
TGI [31]: > 100 µM
TGI [32]: > 100 µM
TGI [33]: > 100 µM
TGI [34]: > 100 µM
TGI [35]: > 100 µM
TGI [36]: > 100 µM
TGI [37]: > 100 µM
TGI [38]: > 100 µM
TGI [39]: > 100 µM
TGI [40]: > 100 µM
TGI [41]: > 100 µM
TGI [42]: > 100 µM
TGI [43]: > 100 µM
TGI [44]: > 100 µM
TGI [45]: > 100 µM
TGI [46]: > 100 µM
TGI [47]: > 100 µM
TGI [48]: > 100 µM
TGI [49]: > 100 µM
TGI [50]: > 100 µM
TGI [51]: > 100 µM
TGI [52]: > 100 µM
TGI [53]: > 100 µM

COC(=O)[C@]1(C)CCC[C@@]2(C)C1CC[C@@]13C=C(C(C)C)[C@@H](CC1=O)CC23 (stereo partly specified)
TGI [1]: 40.1 µM
TGI [2]: 40.5 µM
TGI [3]: > 100 µM
TGI [4]: 38.5 µM
TGI [5]: > 100 µM
TGI [6]: 60.7 µM
TGI [7]: 71.6 µM
TGI [8]: 43.9 µM
TGI [9]: > 100 µM
TGI [10]: > 100 µM
TGI [11]: 83.6 µM
TGI [12]: 67.5 µM
TGI [54]: 85.2 µM
TGI [13]: > 100 µM
TGI [14]: > 100 µM
TGI [15]: > 100 µM
TGI [16]: > 100 µM
TGI [17]: 41.2 µM
TGI [18]: > 100 µM
TGI [19]: 39.2 µM
TGI [21]: 64 µM
TGI [22]: 73.4 µM
TGI [23]: 45.1 µM
TGI [24]: 42 µM
TGI [25]: > 100 µM
TGI [26]: 45.4 µM
TGI [27]: > 100 µM
TGI [55]: 62.4 µM
TGI [56]: 49 µM
TGI [28]: 31 µM
TGI [29]: > 100 µM
TGI [30]: 37.5 µM
TGI [31]: 41.2 µM
TGI [32]: 45.9 µM
TGI [33]: 95.7 µM
TGI [34]: > 100 µM
TGI [35]: > 100 µM
TGI [36]: 83.9 µM
TGI [37]: > 100 µM
TGI [38]: 33 µM
TGI [39]: 63.4 µM
TGI [40]: > 100 µM
TGI [41]: 30.2 µM
TGI [42]: 68.3 µM
TGI [43]: > 100 µM
TGI [45]: 39 µM
TGI [46]: 36.4 µM
TGI [47]: 42.4 µM
TGI [48]: > 100 µM
TGI [49]: 30.9 µM
TGI [52]: > 100 µM
TGI [53]: > 100 µM

COc1ccc(C(SCCO)(c2ccccc2)c2ccc(OC)cc2)cc1
TGI [1]: 69.1 µM
TGI [2]: 29.1 µM
TGI [3]: 30.6 µM
TGI [4]: 24.9 µM
TGI [5]: 26.8 µM
TGI [6]: 29.1 µM
TGI [57]: 27.1 µM
TGI [7]: 29.7 µM
TGI [8]: > 44.1 µM
TGI [58]: 25.8 µM
TGI [9]: 49.1 µM
TGI [10]: 16.8 µM
TGI [11]: 35.6 µM
TGI [12]: 34.7 µM
TGI [54]: 40.6 µM
TGI [13]: 34.1 µM
TGI [14]: 23.1 µM
TGI [15]: 17.2 µM
TGI [16]: 21.5 µM
TGI [17]: 30.5 µM
TGI [18]: 27.3 µM
TGI [19]: 14.8 µM
TGI [59]: 33.8 µM
TGI [20]: 31.4 µM
TGI [21]: 18.5 µM
TGI [22]: 22.8 µM
TGI [23]: 29.6 µM
TGI [24]: 22.2 µM
TGI [25]: 43 µM
TGI [26]: 30.3 µM
TGI [27]: 20.5 µM
TGI [55]: 30.5 µM
TGI [56]: 31.7 µM
TGI [28]: 50.2 µM
TGI [29]: 33.5 µM
TGI [30]: 31.2 µM
TGI [31]: 17.7 µM
TGI [32]: 33.9 µM
TGI [33]: 25.4 µM
TGI [34]: 28.9 µM
TGI [35]: 34.1 µM
TGI [36]: 42 µM
TGI [37]: 15.2 µM
TGI [38]: 21.1 µM
TGI [39]: 36.8 µM
TGI [40]: 35.4 µM
TGI [41]: > 72.9 µM
TGI [42]: 19 µM
TGI [43]: 20.3 µM
TGI [44]: 29.1 µM
TGI [45]: 28.6 µM
TGI [46]: 47.2 µM
TGI [47]: 40.7 µM
TGI [48]: 38.1 µM
TGI [50]: 31.6 µM
TGI [51]: 36.2 µM
TGI [52]: 46.2 µM
TGI [53]: 24.8 µM

O=C1OC(c2ccccc2)=N/C1=C\c1ccc([N+](=O)[O-])cc1
TGI [1]: > 100 µM
TGI [2]: > 100 µM
TGI [3]: > 100 µM
TGI [4]: > 100 µM
TGI [5]: > 100 µM
TGI [6]: > 100 µM
TGI [57]: > 100 µM
TGI [7]: > 100 µM
TGI [8]: > 100 µM
TGI [58]: 86 µM
TGI [9]: > 100 µM
TGI [10]: > 100 µM
TGI [11]: > 100 µM
TGI [12]: 55.1 µM
TGI [54]: > 100 µM
TGI [13]: 93.9 µM
TGI [14]: > 100 µM
TGI [15]: > 100 µM
TGI [16]: > 100 µM
TGI [17]: > 100 µM
TGI [18]: > 100 µM
TGI [19]: > 100 µM
TGI [59]: > 100 µM
TGI [21]: > 100 µM
TGI [22]: > 100 µM
TGI [23]: 40.5 µM
TGI [24]: > 100 µM
TGI [25]: > 100 µM
TGI [26]: > 100 µM
TGI [27]: > 100 µM
TGI [55]: > 100 µM
TGI [56]: > 100 µM
TGI [28]: 58.1 µM
TGI [29]: > 100 µM
TGI [30]: > 100 µM
TGI [31]: > 100 µM
TGI [32]: > 100 µM
TGI [33]: > 100 µM
TGI [34]: > 100 µM
TGI [35]: > 100 µM
TGI [36]: > 100 µM
TGI [37]: > 100 µM
TGI [38]: > 100 µM
TGI [39]: 67 µM
TGI [40]: > 100 µM
TGI [41]: > 100 µM
TGI [42]: > 100 µM
TGI [43]: > 100 µM
TGI [44]: 76.2 µM
TGI [45]: 18.9 µM
TGI [46]: > 100 µM
TGI [47]: 68.3 µM
TGI [48]: > 100 µM
TGI [49]: 79.6 µM
TGI [50]: > 100 µM
TGI [51]: > 100 µM
TGI [52]: > 100 µM
TGI [53]: 96 µM
